Assay results: US7015306B2 (BioSynthema, Inc., priority 1999, dated 2006)
Where a SMILES comes first, the peptide text is derived from it. [ ]: non-standard residue; d: D form. The star is where a group is joined. ξ: configuration not given here. DTPA = O=C(O)CN(CCN(CC(=O)O)CC(=O)O)CCN(CC(=O)O)CC(=O)*; ξGly(4-Pip(1-amidino)) = N=C(N)N1CCC(C(N)C(=O)O)CC1; Dmt = Cc1cc(O)cc(C)c1C[C@H](N)C(=O)O; Tle = CC(C)(C)[C@H](N)C(=O)O; Pip = O=C(O)[C@@H]1CCCCN1; Aze = O=C(O)[C@@H]1CCN1

Key:
[1] = target: T1, HT 29 colon adenocarcinoma cells (Homo sapiens, UniProt P30989); conditions: Ψ(CH2NH) pseudo-peptide analogs; cited from earlier work
T1 construct: host or cells: HT 29 colon adenocarcinoma cells (endogenous receptors)

[2] = In vitro serum stability assay (HPLC) of In-111 labeled peptide; format: in vitro ADME, human; conditions: human serum, 37EC, 4 hours
Experimental: (§1) All reagents were purchased from Sigma unless otherwise noted. The peptide and ^111InCl3 in 0.05 N HCl were incubated in a sodium acetate/ascorbic acid buffer for 30 minutes at room temperature. The reaction was diluted with 5% ethanol/95% PBS before using in subsequent in vitro assays.
(§2) Human serum was purchased from Sigma (H 1388). The labeled peptide was incubated in either human serum or rat urine at 37EC for the specified amount of time. An aliquot was filtered through a 0.45 μm syringe filter prior to HPLC injection.

[3] = target: neurotensin receptors (Homo sapiens, UniProt P30989); assay: Competitive binding assay on frozen tissue sections of receptor-positive human tumors vs radioiodinated native neurotensin
Source text: Frozen tissue sections from receptor-positive human tumors were used in a competitive binding assay.

[4] = In vitro urine stability assay (HPLC) of In-111 labeled peptide; format: in vitro ADME; conditions: rat urine, 37EC, 4 hours
Experimental: as §1, §2

neurotensin receptors, sequence (P30989 whole entry): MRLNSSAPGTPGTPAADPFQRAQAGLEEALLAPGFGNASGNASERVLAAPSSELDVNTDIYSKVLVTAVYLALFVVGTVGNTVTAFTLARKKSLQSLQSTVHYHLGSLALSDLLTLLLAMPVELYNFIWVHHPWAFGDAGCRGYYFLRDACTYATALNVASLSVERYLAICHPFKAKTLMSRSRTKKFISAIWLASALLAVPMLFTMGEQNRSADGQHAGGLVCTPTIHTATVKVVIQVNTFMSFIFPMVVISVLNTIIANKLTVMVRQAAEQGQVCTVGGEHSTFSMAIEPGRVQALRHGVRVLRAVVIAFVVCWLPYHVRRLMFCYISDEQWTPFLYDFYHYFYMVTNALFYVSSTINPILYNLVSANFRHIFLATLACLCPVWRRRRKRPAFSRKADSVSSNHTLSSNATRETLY
T1 sequence (P30989 whole entry): as above

Molecule | Kd [1] [nM] | % of compound present at 4 hours in serum [2] [%] | % of peptide at 4 hours after incubation at 37EC, Serum [2] [%] | Kd ([3]; Table 1) [nM] | % of compound present at 4 hours in urine [4] [%] | % of peptide at 4 hours after incubation at 37EC, Urine [4] [%] | Kd ([3]; Table 3) [nM]
DTPA-Lys^8-Ψ(CH2NH)-Lys^8-NT(8–13) | 7.4 |  |  |  |  |  | 
CC[C@H](C)[C@H](NC(=O)[C@H](Cc1ccc(O)cc1)NC(=O)[C@@H]1CCCN1C(=O)[C@H](CCCNC(=N)N)NC(=O)C(CCc1ccnc(N)n1)NC(=O)[C@@H]1CCCN1C(=O)[C@@H](CCCCN)NC(=O)CN(CCN(CCN(CC(=O)O)CC(=O)O)CC(=O)O)CC(=O)O)C(=O)N[C@@H](CC(C)C)C(=O)O (single isomer, unassigned) [Compound III, DTPA-DLys-Pro-Aba(Apy)-Arg-Pro-Tyr-Ile-Leu-OH] |  | 4.3 | 4.3 | 68 | 6.0 | 6.0 | 
Cc1cc(O)cc(C)c1C[C@H](NC(=O)[C@@H]1CCCN1C(=O)[C@H](CCCNC(=N)N)NC(=O)C(NC(=O)[C@@H]1CCCN1C(=O)[C@@H](CCCCN)NC(=O)CN(CCN(CCN(CC(=O)O)CC(=O)O)CC(=O)O)CC(=O)O)C1CCN(C(=N)N)CC1)C(=O)N[C@H](C(=O)N[C@@H](CC(C)C)C(=O)O)C(C)(C)C (stereo partly drawn) [DTPA-DLys-Pro-Gly(PipAm)-Arg-Pro-(2,6-diMe)Tyr-tBuGly-Leu-OH] ({DTPA}-[dK]P[ξGly(4-Pip(1-amidino))]RP[Dmt][Tle]L-OH) |  |  | 96.6 |  |  | 99.2 | 45
CC(C)C[C@H](NC(=O)[C@@H](NC(=O)[C@H](Cc1ccc(O)cc1)NC(=O)[C@@H]1CCCN1C(=O)[C@H](CCCNC(=N)N)NC(=O)C(NC(=O)[C@@H]1CCN1C(=O)[C@@H](CCCCN)NC(=O)CN(CCN(CCN(CC(=O)O)CC(=O)O)CC(=O)O)CC(=O)O)C1CCN(C(=N)N)CC1)C(C)(C)C)C(=O)O (stereo partly drawn) [DTPA-DLys-AzeCA-Gly(PipAm)-Arg-Pro-Tyr-tBuGly-Leu-OH] ({DTPA}-[dK][Aze][ξGly(4-Pip(1-amidino))]RPY[Tle]L-OH) |  |  | 79.5 |  |  | 49.8 | 24
CC[C@H](C)[C@H](NC(=O)[C@H](Cc1ccc(O)cc1)NC(=O)[C@@H]1CCCN1C(=O)[C@H](CCCNC(=N)N)NC(=O)C(Cc1ccc(NC(=N)N)cc1)NC(=O)[C@@H]1CCCN1C(=O)[C@@H](CCCCN)NC(=O)CN(CCN(CCN(CC(=O)O)CC(=O)O)CC(=O)O)CC(=O)O)C(=O)N[C@@H](CC(C)C)C(=O)O (stereo partly drawn) [Compound I, DTPA-DLys-Pro-(4-Gu)Phe-Arg-Pro-Tyr-Ile-Leu-OH] |  | 14.1 | 14.1 | 8.6 | 1.5 | 1.5 | 
CC(C)C[C@H](NC(=O)[C@@H](NC(=O)[C@H](Cc1ccc(O)cc1)NC(=O)[C@@H]1CCCN1C(=O)[C@H](CCCNC(=N)N)NC(=O)C(NC(=O)[C@@H]1CCCN1C(=O)[C@H](CCCCN)NC(=O)[C@H](CC(N)=O)NC(=O)[C@H](CCC(=O)O)NC(=O)[C@@H](Cc1ccc(O)cc1)NC(=O)CN(CCN(CCN(CC(=O)O)CC(=O)O)CC(=O)O)CC(=O)O)C1CCN(C(=N)N)CC1)C(C)(C)C)C(=O)O (stereo partly drawn) [Compound XIII, DTPA-DTyr-Glu-Asn-Lys-Pro-Gly(PipAm)-Arg-Pro-Tyr-tBuGly-Leu-OH] ({DTPA}-[dY]ENKP[ξGly(4-Pip(1-amidino))]RPY[Tle]L-OH) |  |  | 94.9 |  |  | 86.8 | 4.5
CC(C)C[C@H](NC(=O)[C@@H](NC(=O)[C@H](Cc1ccc(O)cc1)NC(=O)[C@@H]1CCCCN1C(=O)[C@H](CCCNC(=N)N)NC(=O)C(NC(=O)[C@@H]1CCCN1C(=O)[C@@H](CCCCN)NC(=O)CN(CCN(CCN(CC(=O)O)CC(=O)O)CC(=O)O)CC(=O)O)C1CCN(C(=N)N)CC1)C(C)(C)C)C(=O)O (stereo partly drawn) [DTPA-DLys-Pro-Gly(PipAm)-Arg-PipCA-Tyr-tBuGly-Leu-OH] ({DTPA}-[dK]P[ξGly(4-Pip(1-amidino))]R[Pip]Y[Tle]L-OH) |  |  | 69.5 |  |  | 45.8 | > 1000
CC[C@H](C)[C@H](NC(=O)[C@H](Cc1ccc(O)cc1)NC(=O)[C@@H]1CCCN1C(=O)C(Cc1ccc(NC(=N)N)cc1)NC(=O)[C@H](CCCNC(=N)N)NC(=O)[C@@H]1CCCN1C(=O)[C@@H](CCCCN)NC(=O)CN(CCN(CCN(CC(=O)O)CC(=O)O)CC(=O)O)CC(=O)O)C(=O)N[C@@H](CC(C)C)C(=O)O (single isomer, unassigned) [DTPA-DLys-Pro-Arg-(4-Gu)Phe-Pro-Tyr-Ile-Leu-OH] |  |  | 16.3 |  |  | 0 | 83
